Patent EP4613730A1, “LIPIDIC ALKYNYLCARBINOLS WITH ANTI-BACTERIAL AND ANTI-TUBERCULOSIS ACTIVITY” (priority 2024, dated 2025)
Converted amounts (≈) assume the structure as drawn. Like-named read-outs stand apart in the source and are kept apart here.

How the values were obtained:
Assay type in all cases: cell-based
[1] = tested on: Mycobacterium tuberculosis strain H37Rv; experiment: Mycobacterial growth inhibition assay (colorimetric MTT micro assay, MIC)
[2] = Cytotoxicity evaluation on HCT-116 cell line (SRB); conditions: human, HCT-116 colon cancer cells, HCT-116 cells, 72 hours treatment, read-out: Anti-HCT116 CC50
Procedure: (§1) The biological activity of the compounds of the present invention were evaluated. The activity against mycobacteria (Mtb) was assessed by minimum inhibitory concentration values (MIC, µM) determination. The selectivity index (SI) is defined as: SI = (CC50)/(MIC) [formula] wherein CC50 refers to the half maximal cytotoxic concentration of compounds towards particular eukaryotic cells, either for HCT116 cells and/or VERO cells; MIC refers to the minimum inhibitory concentration of the compounds towards mycobacteria.
Human HCT-116 colon cancer cells were seeded in 96-well plates (2500 cells/well) 24 hours before being treated for 72 hours with the tested compounds. Cells were grown and treated in DMEM 10% FBS. For each compound, 11 concentrations, corresponding to twofold serial dilutions from the maximum concentration, were evaluated, with each concentration tested in duplicate. DMSO was set at 0.5% final concentration in each well, including in the untreated conditions. At the end of the treatment, cells were fixed 1 hour at 4°C by addition of cold 10 % trichloroacetic acid to a final 3.33 % concentration, then washed 4 times with water. The plates were dried and the cells stained for 30 minutes with 0.057 % (wt/vol) Sulforhodamine B (SRB) in 1% acetic acid, then washed 4 times with 1% acetic acid and dried. The dye was resuspended by a 1 h 30 incubation in 200 µL of 10 mM Tris-base and the absorbance at 490 nm measured with a plate reader (µquant, Bio-tek). For normalization, the background value was subtracted to each value, the duplicates averaged and the untreated condition set to 100% cell viability. CC50 were computed from at least three independent experiments using the GraphPad Prism software using a non-linear regression to a four-parameter logistic curve (log[inhibitor] vs response; variable slope).

[3] = Cytotoxicity evaluation on Vero cell line (MTT); conditions: African green monkey, Vero cells, read-out: Anti-VERO CC50
Procedure: as §1
Cytotoxicity evaluation of the tested molecules by MTT assay was performed on the Vero cell line. Briefly, cells (5.10^4 cells/mL) in 100 µL of complete medium [MEM supplemented with 10% fetal calf serum (FCS), 2 mM L-glutamine and antibiotics (100U/mL penicillin and 100 µg/mL streptomycin)] were seeded into each well of 96-well plates and incubated at 37 °C in a humidified 5% CO2 with 95% air atmosphere. After a 24 h incubation, 100 µL of medium with various product concentrations and appropriate controls were added and the plates were incubated for 72 h at 37 °C. Each plate-well was then microscope-examined for detecting possible precipitate formation before the medium was aspirated from the wells. 100 µL of MTT solution (0.5 mg/mL in complete MEM) were then added to each well. Cells were incubated for 1 h at 37 °C and the MTT solution was then removed, and DMSO (100 µL/well) was added to dissolve the resulting formazan crystals. Plates were shaken vigorously (300 rpm) for 5 min. The absorbance was measured at 570 nm with a microplate spectrophotometer (BIOTEK Eon). DMSO was used as blank and SDS as positive control. CC50 were calculated by non-linear regression analysis processed on dose-response curves, using TableCurve 2D V5 software.

M. abscessus = experiment: Antibacterial activity MIC, M. abscessus; conditions: Mycobacteroides abscessus
E. coli = experiment: Antibacterial activity MIC, E. coli; conditions: Escherichia coli
C. glutamicum = experiment: Antibacterial activity MIC, C. glutamicum; conditions: Corynebacterium glutamicum
M. smegmatis = experiment: Antibacterial activity MIC, M. smegmatis; conditions: Mycolicibacterium smegmatis
M. kansasii = experiment: Antibacterial activity MIC, M. kansasii; conditions: Mycobacterium kansasii
[4] = M. tuberculosis H37Rv, 7H9 broth, 6 days incubation then MTT 24 h, read-out: Anti-Mtb MIC

Row | Structure (SMILES) | MIC [1, 4] [µM] | CC50 at 72 h [2] [µM] | CC50 at 72 h [3] [µM] | further results
1 | CCCCCCCCCCCC(O)C#CC(O)C1CCCC1 (stereo not shown) [Compound 10, 1-Cyclopentylpentadec-2-yne-1,4-diol] | 5 (≈ 1.54 µg/mL) | 20 | – | –
2 | CCCCCCCCCCCC(O)C#CC(O)C1CCCCC1 (stereo not shown) [Compound 11, 1-Cyclohexylpentadec-2-yne-1,4-diol] | 5 (≈ 1.61 µg/mL) | 50 | – | –
3 | C=CC(O)C#CCC(O)CCCCCCCCCC (stereo not shown) [Compound 12, Heptadec-1-en-4-yne-3,7-diol] | – | 2 | 12.5 | MIC ([1]; read-out: Anti-Mtb MIC): 1.25 µM (≈ 0.333 µg/mL)
4 | C=C=CC(O)C#CCC(O)CCCCCCCCCC (stereo not shown) [Compound 13, Octadeca-1,2-dien-5-yne-4,8-diol] | – | 12 | – | MIC ([1]; read-out: Anti-Mtb MIC): 0.6 µM (≈ 0.167 µg/mL)
5 | C#CC(O)C#CCC(O)CCCCCCCCCC (stereo not shown) [Compound 14, Heptadeca-1,4-diyne-3,7-diol] | – | 2 | 174 | MIC ([1]; read-out: Anti-Mtb MIC): 0.6 µM (≈ 0.159 µg/mL)
6 | CCCCCCCCCCC(O)CC#CC(O)c1ccccc1 (stereo not shown) [Compound 15, 1-Phenylpentadec-2-yne-1,5-diol] | 2.5 (≈ 0.791 µg/mL) | 41 | 75 | –
7 | CCCCCCCCCCC(O)CC#CC(O)CC (stereo not shown) [Compound 16, Heptadec-4-yne-3,7-diol] | 5 (≈ 1.34 µg/mL) | 51 | 75 | –
8 | CCCCCCCCCCC(O)CC#CC(O)C1CC1 (stereo not shown) [Compound 17, 1-Cyclopropylpentadec-2-yne-1,5-diol] | 0.6 (≈ 0.168 µg/mL) | 40 | 44.5 | –
9 | C=CC(O)C#CCCCCCCCCCCCC (stereo not shown) [Compound 18, Heptadec-1-en-4-yn-3-ol] | – | 0.2 | 1 | MIC ([1]; read-out: Anti-Mtb MIC): 2.5 µM (≈ 0.626 µg/mL)
10 | C=C=CC(O)C#CCCCCCCCCCCCC (stereo not shown) [Compound 19, Octadeca-1,2-dien-5-yn-4-ol] | 2.5 (≈ 0.656 µg/mL) | 2.7 | – | –
11 | C#CC(O)C#CCCCCCCCCCCCC (stereo not shown) [Compound 20, Heptadeca-1,4-diyn-3-ol] | – | 0.1 | 0.8 | MIC ([1]; read-out: Anti-Mtb MIC): 1.2 µM (≈ 0.298 µg/mL)
12 | CCCCCCCCCCCCC#CC(O)c1ccccc1 (stereo not shown) [Compound 21, 1-Phenylpentadec-2-yn-1-ol] | 1.2 (≈ 0.361 µg/mL) | 50 | 58.7 | –
13 | CCCCCCCCCCCCC#CC(O)CC (stereo not shown) [Compound 22, Heptadec-4-yn-3-ol] | – | 12 | > 50 | MIC ([1]; M. tuberculosis (Table 4), read-out: Antibacterial activity MIC M. tuberculosis): 2.5 µM (≈ 0.631 µg/mL); MIC (M. abscessus): > 20 µM
14 | CCCCCCCCCCCCC#CC(O)C1CC1 (stereo not shown) [Compound 23, 1-Cyclopropylpentadec-2-yn-1-ol] | > 10 | 60 | 158 | –
15 | CCCCCCCCCCCCC#CC(O)C(C)(C)C (stereo not shown) [Compound 24, 2,2-Dimethylheptadec-4-yn-3-ol] | > 10 | 60 | – | –
16 | CCCCCCCCCCCCC#CC(O)C(CC)CC (stereo not shown) [Compound 25, 3-Ethyloctadec-5-yn-4-ol] | > 10 | 125 | – | –
17 | CCCCCCCCCCCCC#CC(O)C1CCCC1 (stereo not shown) [Compound 26, 1-Cyclopentylpentadec-2-yn-1-ol] | > 10 | 100 | – | –
18 | CCCCCCCCCCCCC#CC(O)C1CCCCC1 (stereo not shown) [Compound 27, 1-Cyclohexylpentadec-2-yn-1-ol] | 10 (≈ 3.07 µg/mL) | 60 | – | –
19 | C=C=CC(O)C#CCCCCCCCCC (stereo not shown) [Compound 28] | – | – | – | MIC ([1]; read-out: Antibacterial activity MIC M. tuberculosis): 5 µM (≈ 1.1 µg/mL); MIC (E. coli): > 10 µM; MIC (C. glutamicum): > 10 µM; MIC (M. smegmatis): > 10 µM; MIC (M. kansasii): 10 µM (≈ 2.2 µg/mL)
